# Source: US20250074911A1, “MACROCYCLIC BTK INHIBITORS” (Crossfire Oncology Holding B.V., priority 2021, published 2025)
# “And” between values parts separate entries of the source, which are not always exact repeats. Equal values may be shown once.
# Experiments:
# [1] = molecular target: full-length wt-BTK enzyme (Homo sapiens (Human), UniProt Q06187); experiment: Biochemical kinase assay wt-BTK (IMAP)
# How it was run: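 Compound and enzyme (final 1.2 nM) were pre-incubated for 1 h at RT, after which the reaction was started with 4 μM ATP plus 50 nM fluorescein-MBP substrate peptide. After 2 h in the dark, the IMAP progressive binding reagent stopped the reaction, and phosphorylation was read by fluorescence polarization.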
# [2] = molecular target: full-length BTK C481S enzyme (Homo sapiens (Human), UniProt Q06187, C481S); experiment: Biochemical kinase assay BTK C481S (IMAP)
# full-length BTK C481S enzyme, sequence (Q06187 whole entry C481S): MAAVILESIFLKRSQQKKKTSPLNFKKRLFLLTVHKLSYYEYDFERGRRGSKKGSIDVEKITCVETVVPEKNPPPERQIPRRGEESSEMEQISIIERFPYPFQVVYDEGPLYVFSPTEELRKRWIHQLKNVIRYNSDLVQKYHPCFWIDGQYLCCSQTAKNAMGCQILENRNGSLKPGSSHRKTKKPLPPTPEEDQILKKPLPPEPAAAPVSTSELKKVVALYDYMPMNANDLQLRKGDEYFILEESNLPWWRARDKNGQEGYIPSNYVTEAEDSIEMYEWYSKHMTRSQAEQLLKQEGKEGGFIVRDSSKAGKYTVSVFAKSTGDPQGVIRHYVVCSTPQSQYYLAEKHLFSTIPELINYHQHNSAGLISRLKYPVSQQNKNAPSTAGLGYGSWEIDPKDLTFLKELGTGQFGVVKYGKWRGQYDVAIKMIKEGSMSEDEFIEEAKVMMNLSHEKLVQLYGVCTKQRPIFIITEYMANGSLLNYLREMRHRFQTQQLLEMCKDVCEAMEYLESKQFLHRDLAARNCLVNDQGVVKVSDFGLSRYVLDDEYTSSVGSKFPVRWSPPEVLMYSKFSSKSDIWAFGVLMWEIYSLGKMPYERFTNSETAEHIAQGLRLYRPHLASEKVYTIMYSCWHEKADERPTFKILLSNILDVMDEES
# How it was run: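 IC50 values come from IMAP fluorescence polarization after quenching with progressive binding solution. The reaction ran 2 h at room temperature in the dark with 1.2 nM full-length C481S enzyme, 7 μM ATP and 50 nM fluorescein-labelled MBP-derived peptide, following a 1 h dark pre-incubation of compound with enzyme.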
# BTK T474I = BTK T474I (Homo sapiens (Human), UniProt Q06187, T474I); experiment: Binding kinetics measurements (Surface Plasmon Resonance) on BTK T474I; details: for Kd: binding affinity by Surface Plasmon Resonance (SPR); for Tau (h) BTK T474I (Act): target residence time, SPR
# BTK T474I, sequence (Q06187 whole entry T474I): as the sequence (Q06187 whole entry C481S) above, with T474I, S481C counted along it
# Protocol: (§1) Binding kinetics measurements on wt-BTK, BTK […], BTK […], BTK […] and BTK […] (Surface Plasmon Resonance) Streptavidin-coated chips (Cat. No. BR100531), disposables and maintenance kits for Biacore were purchased from Cytiva (Eindhoven, The Netherlands). […] Remaining streptavidin was blocked with biocytin. Immobilization was performed at 4° C. Subsequent assay steps were conducted at 22° C. After changing buffer to Biacore buffer with 1% (v/v) dimethylsulfoxide (DMSO), a pre-run was performed for a period of at least 30 min at a flow rate of 30 μl/min to obtain a stable surface. The kinetic constants of the compounds were determined with single cycle kinetics with five consecutive injections with an increasing compound concentration with ranges of 3.16-316 nM. […] To circumvent problems of mass transport limitation, a flow rate of 30 μl/min was used. A blank run with the same conditions was performed before the compound was injected. The SPR sensorgrams were analyzed with Biacore Evaluation Software by using a method of double referencing. First the reference channel was subtracted from the channel containing immobilized protein. Subsequently, the reference curve obtained with buffer injections was subtracted. […] Compounds that bound according to an induced fit model were fitted with a two-state reaction model. The kinetic constants (ka, […], KD) of duplicates were geometrically averaged. […] Target residence for an induced fit model was calculated as described (Tummino and Copeland, 2008).
# [3] = tested on: wt-TMD8 diffuse large B-cell lymphoma cells; experiment: Cell proliferation assay wt-TMD8 (ATPlite, 120 hours); format: cell-based; details: B-cell; wt-TMD8 cells, 120 hours, ATPlite; read-out: IC50 wt-TMD8
# How it was run: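 Readout is percentage growth from ATPlite 1Step luminescence after 5 days (120 h) compound treatment of wt-TMD8 lymphoma cells (1600/well, RPMI-1640 + 10% FBS). Time-zero signal separates growth inhibition from cell kill; 0.3% DMSO wells without compound define maximal growth.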
# BTK C481S = BTK C481S (Homo sapiens (Human), UniProt Q06187, C481S); experiment: Binding kinetics measurements (Surface Plasmon Resonance) on BTK C481S; details: for Tau (h) BTK C418S (Act): target residence time for BTK C481S, SPR
# BTK C481S, sequence (Q06187 whole entry C481S): as the sequence (Q06187 whole entry C481S) above
# Protocol: as §1
# REC-1 T474I cell lines = experiment: Cell proliferation assay REC-1 BTK T474I knock-in cells (ATPlite, 72 hours); format: cell-based; details: Homo sapiens, Rec1; 72 hours; read-out: IC50 REC-1 T474I
# How it was run: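 REC-1 cells carrying CRISPR knock-in mutant BTK, single-cell cloned and sequence-confirmed, were exposed to compound for 72 h and read by ATPlite luminescence. Percentage growth was calculated against the signal at the start of incubation and against untreated 0.3% DMSO wells as maximum growth.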
# wt-BTK = wt-BTK (Homo sapiens (Human), UniProt Q06187); experiment: Binding kinetics measurements (Surface Plasmon Resonance) on wt-BTK; details: for Kd: binding affinity by Surface Plasmon Resonance (SPR); for Tau (h) wt-BTK (Act): target residence time, SPR
# wt-BTK, sequence (Q06187 whole entry): as the sequence (Q06187 whole entry C481S) above, with S481C counted along it
# Protocol: as §1
# [4] = tested on: wt-REC-1 mantle cell lymphoma cells; experiment: Cell proliferation assay wt-REC-1 (ATPlite, 72 hours); format: cell-based; details: 72 h; read-out: IC50 wt-REC-1
# How it was run: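 Luminescent viability read over 72 h, start-of-incubation signal recorded separately to separate growth from cell death. Percentage growth referenced to compound-free 0.3% DMSO wells; IC50 from 4-parameter logistic fit.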
# full-length wt-BTK enzyme, sequence (Q06187 whole entry): as the sequence (Q06187 whole entry C481S) above, with S481C counted along it
Structure (SMILES),IC50 [1],IC50 [2],Kd (BTK T474I),IC50 [3],Kd (BTK C481S; binding affinity by Surface Plasmon Resonance (SPR)),Tau (h) BTK C418S (Act) (BTK C481S),IC50 (REC-1 T474I cell lines),Kd (wt-BTK),IC50 [4],Tau (h) BTK T474I (Act) (BTK T474I),Tau (h) wt-BTK (Act) (wt-BTK)
Nc1ncc2c3c1c(-c1ccc(C(=O)Nc4cc(C(F)(F)F)ccn4)cc1)nn3[C@@H]1CCC[C@H](C1)NC(=O)CCCCCC2 [Example 114],< 5 nM,< 5 nM,10 to 50 nM and < 5 nM,< 100 nM,< 5 nM,1.85 h,500 to 10000 nM,< 5 nM,100 to 1000 nM,,
N#Cc1ccnc(NC(=O)c2ccc(-c3nn4c5c(cnc(N)c35)/C=C/CCOCCC(=O)N[C@@H]3CC[C@@H]4C3)cc2)c1 [Example 185],< 5 nM,< 5 nM,,< 100 nM,,,< 100 nM,,< 100 nM,1.26 h,10.79 h
N#Cc1ccnc(NC(=O)c2ccc(-c3nn4c5c(cnc(N)c35)/C=C/CCN3CC[C@H]3C(=O)N[C@@H]3CC[C@@H]4C3)cc2)c1 [Example 186],< 5 nM,< 5 nM,,< 100 nM,,,< 100 nM,,< 100 nM,0.93 h,>24 h
COc1cc(-c2nn3c4c(cnc(N)c24)/C=C/COCCC(=O)N[C@@H]2CCC[C@@H]3C2)ccc1C(=O)Nc1cc(C(F)(F)F)ccn1 [Example 188],< 5 nM,< 5 nM,,< 100 nM,,,< 100 nM,,< 100 nM,>24 h,
Nc1ncc2c3c1c(-c1ccc(C(=O)Nc4cc(F)ccn4)cc1)nn3[C@@H]1CCC[C@H](C1)NC(=O)CCOC/C=C/2 [Example 189],< 5 nM,< 5 nM,,< 100 nM,,,500 to 10000 nM,< 5 nM,1000 to 10000 nM,1.56 h,4.17 h
Nc1ncc2c3c1c(-c1ccc(C(=O)Nc4cc(C(F)(F)F)ccn4)cc1)nn3[C@@H]1COC[C@H](C1)NC(=O)CCOC/C=C/2 [Example 192],< 5 nM,< 5 nM,< 2 nM,< 100 nM,,,< 100 nM,< 5 nM,< 100 nM,1.40 h,3.61 h
Nc1ncc2c3c1c(-c1ccc(C(=O)Nc4cc(F)ccn4)cc1)nn3[C@@H]1CCC[C@H](C1)NC(=O)CCOCC/C=C/2 [Example 193],< 5 nM,< 5 nM,< 2 nM,< 100 nM,,,< 100 nM,< 5 nM,< 100 nM,>24 h,6.70 h
COc1cc(-c2nn3c4c(cnc(N)c24)/C=C/CCOCCC(=O)N[C@@H]2CCC[C@@H]3C2)ccc1C(=O)Nc1cc(C(F)(F)F)ccn1 [Example 195],< 5 nM,< 5 nM,,< 100 nM,,,< 100 nM,< 5 nM,< 100 nM,0.73 h,3.73 h
Nc1ncc2n3c(nc(-c4ccc(C(=O)Nc5cc(C(F)(F)F)ccn5)cc4)c13)[C@@H]1CC[C@H](C1)NC(=O)CCOC/C=C/2 [Example 198],< 5 nM,< 5 nM,,< 100 nM,,18.16 h,,,< 100 nM,1.44 h,4.28 h
N#Cc1ccnc(NC(=O)c2ccc(-c3nc4n5c(cnc(N)c35)/C=C/COCCC(=O)N[C@@H]3CC[C@@H]4C3)cc2)c1 [Example 199],< 5 nM,< 5 nM,,< 100 nM,,1.28 h,500 to 10000 nM,,< 100 nM,0.54 h,1.69 h
Nc1ncc2n3c(nc(-c4ccc(C(=O)Nc5cc(C(F)(F)F)ccn5)cc4)c13)[C@@H]1CC[C@H](C1)NC(=O)CCCCC/C=C/2 [Example 203],< 5 nM,< 5 nM,,< 100 nM,,,< 100 nM,,< 100 nM,4.17 h,5.73 h
N#Cc1ccnc(NC(=O)c2ccc(-c3nc4n5c(cnc(N)c35)/C=C/CCOCCC(=O)N[C@@H]3CCC[C@@H]4C3)cc2)c1 [Example 205],< 5 nM,< 5 nM,,< 100 nM,,,< 100 nM,,< 100 nM,1.15 h,1.80 h
COc1ccc(F)cc1C(=O)NCc1ccc(-c2nc3n4c(cnc(N)c24)/C=C/CCOCCC(=O)N[C@@H]2CCC[C@@H]3C2)cc1 [Example 210],< 5 nM,< 5 nM,< 2 nM,< 100 nM,,,< 100 nM,< 5 nM,< 100 nM,0.68 h,1.22 h
COc1ccc(F)cc1C(=O)NCc1ccc(-c2nc3n4c(cnc(N)c24)/C=C/COCCC(=O)N[C@@H]2CCC[C@@H]3C2)cc1 [Example 211],< 5 nM,< 5 nM,10 to 50 nM and < 5 nM,< 100 nM,,,500 to 10000 nM,< 5 nM,< 100 nM,,
COc1ccc(F)cc1C(=O)NCc1ccc(-c2nc3n4c(cnc(N)c24)/C=C/CCOCCC(=O)N[C@@H]2CC[C@@H]3C2)cc1 [Example 213],< 5 nM,< 5 nM,< 2 nM,< 100 nM,,,< 100 nM,< 5 nM,< 100 nM,0.93 h,2.29 h
Cc1ccnc(NC(=O)c2ccc(-c3nc4n5c(cnc(N)c35)/C=C/CCOCCC(=O)N[C@@H]3CC[C@@H]4C3)cc2)c1 [Example 215],< 5 nM,< 5 nM,,< 100 nM,,,< 100 nM,,< 100 nM,1.18 h,9.76 h
Cn1nc(NC(=O)c2ccc(-c3nc4n5c(cnc(N)c35)/C=C/CCOCCC(=O)N[C@@H]3CC[C@@H]4C3)cc2)cc1C(F)(F)F [Example 216],< 5 nM,< 5 nM,,< 100 nM,,,< 100 nM,,< 100 nM,1.28 h,4.79 h
COc1ccnc(NC(=O)c2ccc(-c3nc4n5c(cnc(N)c35)/C=C/CCOCCC(=O)N[C@@H]3CC[C@@H]4C3)cc2)c1 [Example 217],< 5 nM,< 5 nM,,< 100 nM,,,< 100 nM,,< 100 nM,0.70 h,2.78 h
Nc1ncc2n3c(nc(-c4ccc(C(=O)Nc5cc(C(F)F)ccn5)cc4)c13)[C@@H]1CC[C@H](C1)NC(=O)CCOCC/C=C/2 [Example 222],< 5 nM,< 5 nM,,< 100 nM,,,100 to 500 nM,,< 100 nM,0.60 h,5.31 h
Nc1ncc2n3c(nc(-c4ccc(C(=O)Nc5cc(OC(F)F)ccn5)cc4)c13)[C@@H]1CC[C@H](C1)NC(=O)CCOCC/C=C/2 [Example 224],< 5 nM,< 5 nM,,< 100 nM,,,< 100 nM,,< 100 nM,1.60 h,3.69 h
Nc1ncc2c3c1c(-c1ccc(C(=O)Nc4cc(C(F)(F)F)ccn4)cc1)nn3[C@@H]1CN[C@H](C1)C(=O)NCCCCC/C=C/2 [Example 225],< 5 nM,< 5 nM,,,,,500 to 10000 nM,,< 100 nM,1.19 h,3.59 h
